Source: patent US20190110476A1, “NOVEL ISOTHIAZOLAMIDES, PROCESSES FOR THEIR PREPARATION AND THEIR USE AS FUNGICIDES” (priority 2014, published 2019)
Marks after values point to notes of the source that are not given here.

assay: Measurement of LogP values by HPLC on reversed phase columns (EEC directive 79/831 Annex V.A8); type: physicochemical; conditions: not given
Method: The abbreviations and numerations of the substituent positions used in the context of the present invention and in the following Tables are explained in detail in the section Examples hereinafter. Also, the LogP values indicated in the following Tables are explained in detail in the section Examples hereinafter. In case LogP values for different diastereoisomers of a specific compound are […], said LogP values are […] by a “+”. […] Measurement of LogP values was performed according to EEC directive 79/831 Annex V.A8 by HPLC (High Performance Liquid Chromatography) on reversed phase columns with the following methods: […] Lambda-max-values were determined using UV-spectra from 200 nm to 400 nm and the peak values of the chromatographic signals

Structure (SMILES)	LogP	LogP [a]	LogP [b]
N#Cc1ccc(CNC(=O)c2snc(N)c2Cl)c(F)c1 [I-202]	1.64[a]	–	–
COc1ccc(CNc2nsc(C(=O)NCc3ccc(OC)c(F)c3)c2Cl)cc1 [I-224]	3.44[a]	–	–
C[C@H](NC(=O)c1snc(NS(=O)(=O)c2ccccc2)c1Cl)C1CCCCC1 [II-009]	–	3.75^[a]	–
O=C(NCCC1CCCCC1)c1snc(N=C(c2ccccc2)c2ccccc2)c1Cl [II-083]	–	5.92^[a]	–
COc1ccc(CNc2nsc(C(=O)NCc3cccc(OC)n3)c2Cl)cc1 [I-1319]	3.41[a]	–	–
COc1ccc(CNc2nsc(C(=O)NC(C)c3ccno3)c2Cl)cc1 (stereo not drawn) [I-1338]	2.73[a]	–	–
COc1ccc(CNC(=O)c2cc(N)ns2)c(F)c1 [I-171]	1.48[a]	–	–
CS(C)=Nc1nsc(C(=O)NCc2ccc(F)c(F)c2F)c1Cl [II-047]	–	1.57^[a]	–
Cc1ccc(CNC(=O)c2snc(N)c2Cl)c(F)c1 [I-164]	2.18[a]	–	–
Cc1cc(C)c(CN(C(=O)c2cc(N)ns2)C2CC2)c(C)c1 [I-977]	2.86[a]	–	–
Cc1ccc(C)c(CN(C(=O)c2snc(N)c2Cl)C2CC2)c1 [I-119]	3.04[a]	–	–
COc1ccc(CNc2nsc(C(=O)N(Cc3ccc(F)cc3F)C3CC3)c2Cl)c(OC)c1 [I-1012]	4.46[a]	–	–
Nc1nsc(C(=O)NCc2cc(Cl)ccc2Cl)c1Cl [I-416]	2.71[a]	–	–
C#CCNc1nsc(C(=O)NCc2ccccc2F)c1Cl [I-058]	2.54[a]	–	–
Nc1nsc(C(=O)NCc2cc(F)ccc2F)c1Cl [I-015]	1.88[a]	–	–
Nc1nsc(C(=O)NCC2CC2)c1Cl [I-337]	1.30[a]	–	–
Cc1nc(CNC(=O)c2snc(N)c2Cl)cs1 [I-1362]	1.14[a]	–	–
Nc1nsc(C(=O)NCCC2CCCCC2)c1Cl [I-850]	2.92[a]	–	–
COc1ccc(CNc2cc(C(=O)O)sn2)cc1 [E-VIII-016]	–	1.87^[a]	–
Nc1nsc(C(=S)NCc2c(F)cc(F)cc2F)c1Cl [I-1015]	2.86[a]	–	–
Nc1cc(C(=O)NCC2CCC(O)C2)sn1 (stereo not drawn) [I-775]	0.36[a]	–	–
CCC(=O)Nc1nsc(C(=O)NCc2ccc(F)cc2C)c1Cl [I-817]	2.15[a]	–	–
Cc1ccc(CN(C(=O)c2snc(N)c2Cl)C2CC2)c(C)c1 [I-152]	3.09[a]	–	–

Structure (SMILES)	LogP	LogP [a]	LogP [b]
C[C@H](NC(=O)c1snc(NC(=O)C2CC2)c1Cl)C1CCCCC1 [I-090]	2.99[a]	–	–
O=C(NCc1ccc(F)cc1F)c1snc(N=S2CCCC2)c1F [II-059]	–	1.57^[a]	–
Nc1nsc(C(=O)NCC2CCCCC2Cl)c1Cl (stereo not drawn) [I-821]	2.44[a]	–	–
COc1ccc(CNc2nsc(C(=O)NC3CC(C)(C)Cc4oc(C)cc43)c2Cl)cc1 (stereo not drawn) [I-1325]	4.74[a]	–	–
O=C(Nc1ccc(Cl)cc1Cl)c1snc(N(Cc2ccccc2)Cc2ccccc2)c1Br [I-960]	7.15[a]	–	–
O=C(NC1CCCC2CCCCC21)c1snc(Cl)c1Cl (stereo not drawn) [E-II-025]	–	5.27^[a]	–
COc1ccc(CNc2nsc(C(=O)OC(C)(C)C)c2Cl)cc1 [E-VII-002]	–	4.74^[a]	–
Nc1cc(C(=O)NCC2CCCCC2)sn1 [I-005]	1.92[a]	–	–
CS(C)=Nc1nsc(C(=O)NCc2c(F)cc(F)cc2F)c1F [II-079]	–	1.40^[a]	–
COc1ccc(CN(Cc2ccccc2)c2nscc2Cl)cc1 [Z-A-007]	–	5.03^[a]	–
CS(C)=Nc1nsc(C(=O)NCc2ccc(F)cc2F)c1Cl [II-041]	–	1.38^[a]	–
COc1ccc(CNc2nsc(C(=O)NCC3CCCCCC3)c2Cl)cc1 [I-045]	4.69[a]	–	–
COc1ccc(CNc2nsc(C(=O)N(Cc3ccc(Cl)cc3Cl)C3CCC3)c2Cl)cc1 [I-934]	5.56[a]	–	–
COc1ccc(CNc2nsc(C(=O)NCCc3ccc(F)cc3)c2Cl)cc1 [I-961]	3.72[a]	–	–
C=CCONC(=O)c1snc(NCc2ccc(OC)cc2)c1Cl [I-1353]	2.62[a]	–	–
Nc1nsc(C(=O)NC2CCCC3CCCCC32)c1Cl (stereo not drawn) [I-621]	3.39[a]	–	–
COc1ccc(CNc2nsc(C(=O)NCc3ccc(C(C)(C)C)cc3)c2Cl)cc1 [I-1199]	4.69[a]	–	–
COc1ccc(CNc2nsc(C(=O)N(Cc3ccc(Cl)cc3Cl)C3CC3)c2Cl)cc1 [I-930]	5.08[a]	–	–
COc1ccc(CNc2nsc(C(=O)NC(C)c3cccc4ccccc34)c2Cl)cc1 (stereo not drawn) [I-1275]	4.32[a]	–	–
Cc1c(N)nsc1C(=O)NCc1ccc(F)cc1 [I-050]	1.52[a]	–	–
COc1ccc(CNc2nsc(C(=O)NC(c3ccccc3C)C(C)C)c2Cl)cc1 (stereo not drawn) [I-1192]	4.69[a]	–	–
O=C(Nc1nsc(C(=O)O)c1Cl)c1ccc(F)cc1 [E-VIII-007]	–	1.02^[a]	–
CC(C)(C)C(=O)Nc1nsc(C(=O)NCC2CCCCC2)c1Cl [I-172]	3.18[a]	–	–

Structure (SMILES)	LogP	LogP [a]	LogP [b]
Nc1nsc(C(=O)NCC2(F)CCCCC2)c1Br [I-828]	2.15[a]	–	–
CCC(=O)Nc1nsc(C(=O)NCC2CCCCC2)c1Cl [I-109]	2.50[a]	–	–
Nc1nsc(C(=O)NCc2cccc(I)c2)c1Cl [I-716]	2.51[a]	–	–
CC(Cc1ccccc1Cl)NC(=O)c1snc(N)c1Cl (stereo not drawn) [II-011]	–	2.64^[a]	–
CC(=O)N(C(C)=O)c1nsc(C(=O)NCc2ccc(C#N)cc2)c1Cl [I-846]	2.12[a]	–	–
CCCS(CC)=Nc1nsc(C(=O)NCc2cc(F)c(F)cc2F)c1F (stereo not drawn) [II-103]	–	2.10^[a]	–
COc1ccc(CNc2nsc(C(=O)NCC3C(C)CCCC3(C)C)c2Cl)cc1 (stereo not drawn) [I-076]	5.48[a]	–	–
COc1ccc(CNc2nsc(C(=O)NCc3cc(Cl)ccc3Cl)c2Cl)cc1 [I-393]	4.34[a]	–	–
CC(c1cc(Cl)cc(Cl)c1)N(C(=O)c1cc(N(Cc2ccccc2)Cc2ccccc2)ns1)C1CC1 (stereo not drawn) [I-912]	6.54[a]	–	–
Cc1c(N)nsc1C(=O)NCc1cc(F)cc(F)c1F [I-585]	1.82[a]	–	–
CCC(c1ccc(Cl)cc1Cl)N(C(=O)c1snc(N)c1Cl)C1CC1 (stereo not drawn) [I-954]	3.90[a]	–	–
COc1ccc(CNc2nsc(C(=O)NCC3OCCc4ccccc43)c2Cl)cc1 (stereo not drawn) [I-1208]	3.72[a]	–	–
O=CCCNc1nsc(C(=O)NCC2CCCCC2)c1Cl [I-715]	2.83[a]	–	–
CCOC(=O)c1snc(N(C(C)=O)C(C)=O)c1Cl [E-VII-022]	–	2.47^[a]	–
Nc1nsc(C(=O)NCc2ccc(F)c(F)c2F)c1Cl [I-121]	2.09[a]	–	–
COc1ccc2c(c1)CCCN2C(=O)c1snc(N)c1Cl [II-017]	–	2.11	2.06
C#CCOC(=O)N(C(=O)OCC#C)c1nsc(C(=O)N[C@@H](C)C2CCCCC2)c1Cl [I-135]	3.96[a]	–	–
Nc1nsc(C(=O)NCC2CCCCC2)c1Cl [I-002]	2.40[a]	–	–
COc1cccc(CNC(=O)c2snc(N)c2Cl)c1Cl [I-465]	2.23[a]	–	–
COC(=O)CC(NC(=O)c1snc(Cl)c1Cl)C1CCCCC1 (stereo not drawn) [E-II-030]	–	4.03	3.95
CCCC(c1ccccc1)N(C(=O)c1snc(NCc2ccc(OC)cc2)c1Cl)C1CC1 (stereo not drawn) [I-899]	5.25[a]	–	–
COc1ccc(CNc2nsc(C(=O)NCc3ccc(Cl)cc3F)c2Cl)cc1 [I-225]	4.03[a]	–	–
Nc1nsc(C(=O)NCC2CCCC2)c1Cl [I-073]	2.15[a]	–	–

same assay, conditions: HPLC LC-UV, acidic range, 0.1% formic acid in water and acetonitrile as eluent

Structure (SMILES)	chromatographic logP
CCOC(=O)c1snc(N(Cc2ccccc2)Cc2ccccc2)c1C(F)F [E-VII-023, ethyl 3-(dibenzylamino)-4-(difluoromethyl)-1,2-thiazole-5-carboxylate]	5.68
